{
  "source": "patent US9056863B2",
  "about": "“Substituted 2,3,5,9,9B-pentaazacyclopenta[a]naphthalenes and uses thereof” (H. Lundbeck A/S, priority 2011, dated 2015)",
  "key": {"[1]": {"conditions": "tryptophan depletion; cited from earlier work"}, "[2]": {"conditions": "aged rats; cited from earlier work"}, "[3]": {"conditions": "mice, BSO glutathione depletion; cited from earlier work"}, "[4]": {"conditions": "cited from earlier work"}, "[5]": {"system": "primary neuronal cultures and hippocampal slices", "conditions": "cited from earlier work"}, "[6]": {"conditions": "in vivo; cited from earlier work"}, "rat hippocampal slices": {"system": "rat hippocampal slices", "conditions": "cited from earlier work"}, "human PDE2A enzyme": {"biological_target": "human PDE2A enzyme (Homo sapiens (Human), UniProt O00408)", "sequence (O00408 whole entry)": "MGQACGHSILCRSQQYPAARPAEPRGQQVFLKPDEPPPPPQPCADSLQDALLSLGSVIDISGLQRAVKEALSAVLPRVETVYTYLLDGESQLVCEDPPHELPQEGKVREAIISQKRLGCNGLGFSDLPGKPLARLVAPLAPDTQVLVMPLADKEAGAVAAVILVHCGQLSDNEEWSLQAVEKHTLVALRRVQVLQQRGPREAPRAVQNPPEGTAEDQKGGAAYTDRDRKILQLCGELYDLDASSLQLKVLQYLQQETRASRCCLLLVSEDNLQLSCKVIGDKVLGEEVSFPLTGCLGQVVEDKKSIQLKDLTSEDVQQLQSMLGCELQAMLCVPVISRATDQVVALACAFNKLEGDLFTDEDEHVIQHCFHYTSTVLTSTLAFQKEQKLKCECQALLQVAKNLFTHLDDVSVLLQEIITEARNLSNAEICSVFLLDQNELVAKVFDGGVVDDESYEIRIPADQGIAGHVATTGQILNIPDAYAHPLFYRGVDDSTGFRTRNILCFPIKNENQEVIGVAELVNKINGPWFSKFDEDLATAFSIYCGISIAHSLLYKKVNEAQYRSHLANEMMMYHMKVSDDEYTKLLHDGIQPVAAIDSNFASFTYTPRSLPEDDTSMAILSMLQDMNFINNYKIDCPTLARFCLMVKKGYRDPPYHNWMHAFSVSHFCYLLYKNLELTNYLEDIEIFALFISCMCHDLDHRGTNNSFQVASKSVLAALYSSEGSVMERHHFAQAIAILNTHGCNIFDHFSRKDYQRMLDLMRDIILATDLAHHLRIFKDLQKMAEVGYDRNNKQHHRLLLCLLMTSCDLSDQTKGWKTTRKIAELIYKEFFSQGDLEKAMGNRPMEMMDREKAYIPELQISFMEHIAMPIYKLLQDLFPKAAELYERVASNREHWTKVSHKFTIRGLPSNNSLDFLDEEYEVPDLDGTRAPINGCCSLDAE", "test": "PDE2A inhibition assay", "format": "biochemical", "conditions": "15 nM tritium labelled cAMP, SPA", "procedure": "Likewise, active human PDE2A enzyme (ATCC68585) is prepared in a number of ways for use in PDE assays and procedures are well known to those skilled in the art.\nA typical PDE2A assay was performed as follows: the assay was performed in 60 μL samples containing a fixed amount of the […] enzyme (sufficient to convert 20-25% of the cyclic nucleotide substrate), a buffer (50 mM HEPES pH 7.6; 10 mM MgCl2; 0.02% Tween20), 0.1 mg/ml BSA, 15 nM tritium labelled cAMP and varying amounts of inhibitors. Reactions were initiated by addition of the cyclic nucleotide substrate, and reactions were allowed to proceed for 1 h at room temperature before being terminated through mixing with 20 μL (0.2 mg) yttrium silicate SPA beads (Amersham). The beads were allowed to settle for 1 h in the dark before the plates were counted in a Wallac 1450 Microbeta counter. The measured signals were converted to activity relative to an uninhibited control (100%) and IC50 values were calculated using XlFit (model 205, IDBS)."}, "human PDE10A": {"biological_target": "human PDE10A (Homo sapiens (Human), UniProt Q9Y233)", "sequence (Q9Y233 716-1055)": "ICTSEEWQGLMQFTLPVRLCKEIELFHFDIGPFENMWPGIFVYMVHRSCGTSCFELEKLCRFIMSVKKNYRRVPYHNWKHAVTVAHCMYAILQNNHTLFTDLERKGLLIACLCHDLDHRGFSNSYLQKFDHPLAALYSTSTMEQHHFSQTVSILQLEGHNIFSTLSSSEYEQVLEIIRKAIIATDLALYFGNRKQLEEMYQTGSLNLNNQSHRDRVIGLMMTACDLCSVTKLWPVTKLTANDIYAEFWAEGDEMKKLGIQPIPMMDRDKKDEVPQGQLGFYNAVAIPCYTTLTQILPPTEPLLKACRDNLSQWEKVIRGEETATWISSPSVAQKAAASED", "test": "PDE10A inhibition assay", "format": "biochemical", "conditions": "for PDE10 % inhibition: @ 10,000 nM", "procedure": "Active PDE10A enzyme is prepared in a number of ways for use in PDE assays (Loughney, K. et al. Gene 1999, 234, 109-117; Fujishige, K. et al. Eur J. Biochem. 1999, 266, 1118-1127 and Soderling, S. et al. Proc. Natl. Acad. Sci. 1999, 96, 7071-7076). PDE10A can be expressed as full-length proteins or as truncated proteins, as long as they express the catalytic domain. PDE10A can be prepared in different cell types, for example insect cells or E. coli. An example of a method to obtain catalytically active PDE10A is as follows: The catalytic domain of human PDE10A (amino acids 440-779 from the sequence with accession number NP 006652) is amplified from total human brain total RNA by standard RT-PCR and is cloned into the BamH1 and XhoI sites of the pET28a vector (Novagen). Expression in coli is performed according to standard protocols. Briefly, the expression plasmids are transformed into the BL21(DE3) E. coli strain, and 50 mL cultures inoculated with the cells allowed to grow to an OD600 of 0.4-0.6 before protein expression is induced with 0.5 mM IPTG. Following induction, the cells are incubated overnight at room temperature, after which the cells are collected by centrifugation. Cells expressing PDE10A are resuspended in 12 mL (50 mM TRIS-HCl-pH8.0, 1 mM MgCl2 and protease inhibitors). The cells are lysed by sonication, and after all cells are lysed, TritonX100 is added according to Novagen protocols.\nA typical PDE10A assay was performed as follows: the assay was performed in 60 μL samples containing a fixed amount of the […] enzyme (sufficient to convert 20-25% of the cyclic nucleotide substrate), a buffer (50 mM HEPES pH 7.6; 10 mM MgCl2; 0.02% Tween20), 10 nM tritium labelled cAMP and varying amounts of inhibitors. […] The beads were allowed to settle for 1 h in the dark before the plates were counted in a Wallac 1450 Microbeta counter. The measured signals were converted to activity relative to an uninhibited control (100%) and IC50 values were calculated using XlFit (model 205, IDBS)."}, "[7]": {"conditions": "cited from earlier work", "remark": "listed apart in the source"}, "[8]": {"conditions": "rats; cited from earlier work"}, "[9]": {"conditions": "rats, subchronic phencyclidine; cited from earlier work"}},
  "data": [
    {"smiles": "COc1ccc(Cc2nn3c([C@@H](CCCc4ccccc4)[C@@H](C)O)nc(C)c3c(=O)[nH]2)cc1OC", "note": "[Bay 60-7550]", "values": [
      {"measurement": "deficit in object recognition", "setting": "[1]", "result": "reverse the deficit in object recognition"},
      {"measurement": "object recognition", "setting": "[2]", "result": "beneficial effect"},
      {"measurement": "anxiety-like behaviours", "setting": "[3]", "result": "reversed"},
      {"measurement": "anxiogenic effects of restraint stress on behaviour", "setting": "[4]", "result": "antagonized the anxiogenic effects"},
      {"measurement": "cGMP", "setting": "[5]", "result": "preferentially increases cGMP"},
      {"measurement": "activity in novel object and social recognition tasks", "setting": "[6]", "result": "active"},
      {"measurement": "long term potentiation (LTP) induction", "setting": "rat hippocampal slices", "result": "increases long term potentiation (LTP) induction"}
    ]},
    {"smiles": "Cc1cccc(Cl)c1-c1nnc2c(C)nc3ncccc3n12", "note": "[Example Ia2, 1-(2-Chloro-6-methyl-phenyl)-4-methyl-2,3,5,6,9b-pentaaza-cyclopenta[a]naphthalene]", "values": [
      {"measurement": "IC50", "setting": "human PDE2A enzyme", "result": 504, "unit": "nM"},
      {"measurement": "PDE10 % inhibition", "setting": "human PDE10A", "result": 48, "unit": "% inhibition"}
    ]},
    {"smiles": "Cc1nc2cnccc2n2c(-c3ccccc3Cl)nnc12", "note": "[Example Ib1, 1-(2-Chloro-phenyl)-4-methyl-2,3,5,7,9b-pentaaza-cyclopenta[a]naphthalene]", "values": [
      {"measurement": "IC50", "setting": "human PDE2A enzyme", "result": 471, "unit": "nM"},
      {"measurement": "PDE10 % inhibition", "setting": "human PDE10A", "result": 68, "unit": "% inhibition"}
    ]},
    {"smiles": "Cc1nc2ccncc2n2c(-c3ccccc3Cl)nnc12", "note": "[Example Ic1, 1-(2-Chloro-phenyl)-4-methyl-2,3,5,8,9b-pentaaza-cyclopenta[a]naphthalene]", "values": [
      {"measurement": "IC50", "setting": "human PDE10A; 10 nM tritium labelled cAMP, SPA, read-out: PDE10 IC50", "result": 1760, "unit": "nM"}
    ]},
    {"smiles": "COc1cc2c(cc1-c1ccccc1)C(c1cccc(C(N)=O)c1)=NCC(=O)N2C", "note": "[ND7001]", "values": [
      {"measurement": "anxiogenic effects of restraint stress on behaviour", "setting": "[4]", "result": "antagonized the anxiogenic effects"}
    ]},
    {"smiles": "NCCN(CCN)/[N+]([O-])=N/O", "note": "[detanonoate]", "values": [
      {"measurement": "anxiogenic effects of restraint stress on behaviour", "setting": "[4]", "result": "antagonized the anxiogenic effects"}
    ]},
    {"smiles": "O=C(CCCN1CCC(O)(c2ccc(Cl)cc2)CC1)c1ccc(F)cc1", "note": "[haloperidol]", "values": [
      {"measurement": "cGMP levels", "setting": "[7]; patients", "result": "increased"},
      {"measurement": "cAMP levels", "setting": "[7]; rats", "result": "increased"}
    ]},
    {"smiles": "COc1ccc(Cc2nccc3cc(OC)c(OC)cc23)cc1OC", "note": "[papaverine]", "values": [
      {"measurement": "apomorphine-induced stereotypies", "setting": "[8]", "result": "reduces apomorphine-induced stereotypies"},
      {"measurement": "dopamine concentration in rat brain", "setting": "[8]", "result": "reducing dopamine concentration"},
      {"measurement": "haloperidol-induced catalepsy", "setting": "[8]", "result": "increases haloperidol-induced catalepsy"},
      {"measurement": "attentional set-shifting deficits", "setting": "[9]", "result": "reverses attentional set-shifting deficits"}
    ]}
  ]
}
